Structures are written as SMILES. Converted amounts (≈) assume the structure as drawn. Where two headings read alike, the source gives them in different places.

The subject of one test is MRSA USA100. As to the kind of experiment: MIC against MRSA USA100. The class given is cell-based, Staphylococcus aureus. The following applies: Staphylococcus aureus, read-out: MIC, Staphylococcus aureus isolate USA100. On the procedure: (§1) 96-well plates were seeded with 5 × 10^5 CFU/mL in a volume of 100 μL of tryptic soy broth (TSB) per well for Staphylococcus aureus assays. Compounds were dissolved in DMSO and serially diluted as 1:2 dilutions to give the final concentration ranging from 0.25 to 128 μg/mL per well. […] Plates were incubated at 37 °C for 18–20 hours and MIC was determined by reading OD625. For M.avium and M.abscessus, 7H9 broth media was used for determination of MICs. The final concentration was 5 × 10^5 CFU/mL in each well. The plate was incubated at 37 °C for 7–8 days and MICs were determined using a Tecan microplate reader (OD625) and resazurin reduction assay.

The test system of the next test is MRSA USA700. As to the kind of experiment: MIC against MRSA USA700. The class given is cell-based, Staphylococcus aureus. To be noted: for MIC: Staphylococcus aureus, read-out: MIC, Staphylococcus aureus isolate USA700. The protocol:
as §1

The next test has as its system MRSA USA300. As to the kind of experiment: MIC against MRSA USA300. It counts as cell-based, Staphylococcus aureus. The following applies: Staphylococcus aureus, read-out: MIC, Staphylococcus aureus isolate USA300. The protocol:
as §1

In the next test the test system is MRSA USA400. As to the kind of experiment: MIC against MRSA USA400. It counts as cell-based, Staphylococcus aureus. To be noted: Staphylococcus aureus, read-out: MIC, Staphylococcus aureus isolate USA400. On the procedure:
as §1

For a further test, the system named is MRSA USA200. As to the kind of experiment: MIC against MRSA USA200. The class given is cell-based, Staphylococcus aureus. The following applies: for MIC: Staphylococcus aureus, read-out: MIC, Staphylococcus aureus isolate USA200. The protocol: as §1
A further test relates to Enterococcus faecalis. As to the kind of experiment: MIC against Enterococcus faecalis. To be noted: read-out: MIC, EF. It counts as cell-based.
In test [1] the test system is Methicillin susceptible Staphylococcus aureus. As to the kind of experiment: MIC against MSSA. The class given is cell-based. To be noted: MSSA. The protocol: as §1
The next test deals with MRSA USA800. As to the kind of experiment: MIC against MRSA USA800. The following applies: Staphylococcus aureus; TSB, 37 °C, 18–20 hours; read-out: MIC, Staphylococcus aureus isolate USA800. It counts as cell-based, Staphylococcus aureus. On the procedure:
as §1

A further test deals with MRSA USA500. As to the kind of experiment: MIC against MRSA USA500. It counts as cell-based, Staphylococcus aureus. To be noted: Staphylococcus aureus; TSB, 37 °C, 18–20 hours; read-out: MIC, Staphylococcus aureus isolate USA500. The protocol:
as §1

For a further test, the system named is Pseudomonas aeruginosa. As to the kind of experiment: MIC against Pseudomonas aeruginosa. The class given is cell-based. To be noted: read-out: MIC, PA.
For another test, the system named is MRSA (USA700) biofilms. As to the kind of experiment: S. aureus biofilm assay. The class given is cell-based, Staphylococcus aureus. The protocol:
Biofilm assays were performed using a method previously described with modification. A 96 well plate was precoated with 20% human plasma (Sigma) in 0.05 M carbonate buffer, pH 9.6 at 4 °C for 24 h. MRSA was cultured overnight in TSB containing 3% NaCl and 0.5% glucose. The overnight culture was diluted with TSB/NaCl/Glucose media until OD600 reached 0.05. After carefully removing the liquid from the 96 well plate, 200 μL of MRSA dilution was added to each well in triplicate. The plate was incubated at 37 °C for 24 h and carefully washed with PBS twice. MH broth (200 μL) containing a compound was added to each well in triplicate and incubated at 37 °C for 24 h. After washing with PBS twice, the biofilm was scraped in 100 μL of PBS and serially diluted and plated on TSA to determine CFU.

Another test concerns MRSA (USA200). As to the kind of experiment: Colony morphology / small colony variant formation on TSA. To be noted: USA200 on TSA, 37 °C, up to 96 h (3a 4–16 μg/mL), 72 h (7c, rifampin). The class given is cell-based, Staphylococcus aureus. The protocol: MRSA was streaked and then incubated on tryptic soy agar (TSA) containing 0, 2, 4, 8 or 16 μg/mL of inhibitor 3a or 4 μg/mL of 7C or 0.025 μg/mL of rifampin at 37 °C for 96 h. MK-4 (100 μg/mL) was supplemented in TSA containing 8 μg/mL of 3a for the rescue experiment.

As for `Brc1ccc(CCNCCCCCCCCOc2ccc3cc(Br)ccc3c2)cc1` [5c], the MIC (as a rule, the least concentration at which growth counts as inhibited) in the test on MRSA USA100 (TSB, 37 °C, 18–20 hours) worked out at 32 mg/L (≈ 60 µM); in the test on MRSA USA700 (TSB, 37 °C, 18–20 hours), 32 mg/L (≈ 60 µM); with MRSA USA300 (TSB, 37 °C, 18–20 hours) it was 32 mg/L (≈ 60 µM); in the test with MRSA USA400 (TSB, 37 °C, 18–20 hours) it was 16 mg/L (≈ 30 µM); with MRSA USA200 (TSB, 37 °C, 18–20 hours), 8 mg/L (≈ 15 µM); in the test on Enterococcus faecalis, 8 mg/L (≈ 15 µM).
On to `Brc1ccc2cc(OCCCCCCCCN3CCCCC3)ccc2c1` [5d], for which the MIC with MRSA USA100 is 8 mg/L (≈ 19.1 µM); in the test on MRSA USA700, 16 mg/L (≈ 38.2 µM); with MRSA USA400, 4 mg/L (≈ 9.56 µM).
Take `C=CCN(C)CCCCCCCCOc1ccc2cc(Br)c(OCc3ccccc3)cc2c1` [6a]: the minimum inhibitory concentration (MIC) with MRSA USA700 (TSB, 37 °C, 18–20 hours) is 16 mg/L (≈ 31.3 µM); in test [1], 16 mg/L (≈ 31.3 µM); in the test with MRSA USA400 (TSB, 37 °C, 18–20 hours) it was 8 mg/L (≈ 15.7 µM); in the test with MRSA USA200 (TSB, 37 °C, 18–20 hours), 8 mg/L (≈ 15.7 µM); with MRSA USA800, 64 mg/L (≈ 125 µM); in the test with Enterococcus faecalis, 4 mg/L (≈ 7.84 µM).
For `Fc1ccc(CCNCCCCCCCCOc2ccc3cc(Br)c(OCc4ccccc4)cc3c2)cc1` [6c], the MIC was above 128 mg/L in the test on MRSA USA500; above 128 mg/L in the test with MRSA USA100 (TSB, 37 °C, 18–20 hours); above 128 mg/L with MRSA USA700 (TSB, 37 °C, 18–20 hours); above 128 mg/L in test [1]; above 128 mg/L with MRSA USA400 (TSB, 37 °C, 18–20 hours); above 128 mg/L in the test with MRSA USA800.
Turning to `Clc1ccc(CCNCCCCCCCCOc2ccc3cc(Br)c(OCc4ccccc4)cc3c2)cc1` [6d], the MIC with MRSA USA700 (TSB, 37 °C, 18–20 hours) is 64 mg/L (≈ 108 µM); in [1], 64 mg/L (≈ 108 µM); in the test with MRSA USA300 (TSB, 37 °C, 18–20 hours) it was above 128 mg/L; with MRSA USA400 (TSB, 37 °C, 18–20 hours) it was above 128 mg/L; in the test with Enterococcus faecalis, 16 mg/L (≈ 26.9 µM).
As for `Brc1ccc(CCNCCCCCCCCOc2ccc3cc(Br)c(OCc4ccccc4)cc3c2)cc1` [6e], the MIC was 128 mg/L (≈ 200 µM) with MRSA USA700, above 128 mg/L with MRSA USA300 and 128 mg/L (≈ 200 µM) in the test with MRSA USA200.
`C=CCN(C)CCCOc1ccc2ccc(OCCCN(C)CC=C)cc2c1` [7a]: in the test on MRSA USA700 (TSB, 37 °C, 18–20 hours), the “MIC, Staphylococcus aureus isolate USA700” value amounted to 128 mg/L (≈ 335 µM). Also, the “MIC, Staphylococcus aureus isolate USA200” value with MRSA USA200 (TSB, 37 °C, 18–20 hours) was above 128 mg/L.
Regarding `c1cc2ccc(OCCCN3CCCCC3)cc2cc1OCCCN1CCCCC1` [7b], the MIC with MRSA USA700 was above 128 mg/L.
Still for that read-out and setting: the same measure for `Fc1ccc(N2CCN(CCCOc3ccc4ccc(OCCCN5CCN(c6ccc(F)cc6)CC5)cc4c3)CC2)cc1` [7d, 2,7-bis(3-(4-(4-fluorophenyl)piperazin-1-yl)propoxy)naphthalene]: above 128 mg/L.
In the case of `CC(=O)NC[C@H]1CN(c2ccc(N3CCOCC3)c(F)c2)C(=O)O1` [Linezolid, reference compound], the MIC turned out to be 0.5 mg/L (≈ 1.48 µM) in the test with MRSA USA500; 0.5 mg/L (≈ 1.48 µM) with MRSA USA100 (TSB, 37 °C, 18–20 hours); 1 mg/L (≈ 2.96 µM) in the test on MRSA USA700 (TSB, 37 °C, 18–20 hours); 1 mg/L (≈ 2.96 µM) in test [1]; 1 mg/L (≈ 2.96 µM) in the test with MRSA USA300 (TSB, 37 °C, 18–20 hours); 1 mg/L (≈ 2.96 µM) in the test on MRSA USA400 (TSB, 37 °C, 18–20 hours). Further, the MIC in the test on MRSA USA200 (TSB, 37 °C, 18–20 hours) was 1 mg/L (≈ 2.96 µM); in the test with MRSA USA800, 0.5 mg/L (≈ 1.48 µM); with Enterococcus faecalis, above 32 mg/L; in the test with Pseudomonas aeruginosa it was 1 mg/L (≈ 2.96 µM).
For `CN(C)c1ccc(O)c2c1C[C@H]1C[C@H]3[C@H](N(C)C)C(O)=C(C(N)=O)C(=O)[C@@]3(O)C(O)=C1C2=O` [Minomycin, Minocycline, reference compound], the MIC in the test on MRSA USA500 is below 0.06 mg/L; with MRSA USA400 (TSB, 37 °C, 18–20 hours), 0.5 mg/L (≈ 1.09 µM); in the test on Enterococcus faecalis, 16 mg/L (≈ 35 µM). Besides, the “MIC, Staphylococcus aureus isolate USA700” value against MRSA USA700 (TSB, 37 °C, 18–20 hours) is below 0.06 mg/L. In the test with MRSA (USA700) biofilms (USA700 biofilm, 0.5 and 0.03 mg/mL, 24 h), the “MRSA biofilm growth compared to the positive control” value is given as “significant decrease”. In addition, in the test with MRSA (USA700) biofilms (USA 700 biofilm, 8300 × MIC), the “fold reduction of MRSA biofilm compared to the positive control” value is reported as 10^6 fold.
As for `CO[C@H]1/C=C/O[C@@]2(C)Oc3c(C)c(O)c4c(O)c(c(/C=N/N5CCN(C)CC5)c(O)c4c3C2=O)NC(=O)/C(C)=C\C=C\[C@H](C)[C@H](O)[C@@H](C)[C@@H](O)[C@@H](C)[C@H](OC(C)=O)[C@@H]1C` [rifampin, reference compound], the “induction of small colony variants (SCV)” value with MRSA (USA200) was “showed growth of SCV”.

The record behind these values is paper PMC5223195, “Novel long-chain compounds with both immunomodulatory and MenA inhibitory activities against Staphylococcus aureus and its biofilm” (Scientific Reports, 2017).
